{"source": "paper PMC11181322", "about": "“Copper(II) Complexes with Isomeric Morpholine-Substituted 2-Formylpyridine Thiosemicarbazone Hybrids as Potential Anticancer Drugs Inhibiting Both Ribonucleotide Reductase and Tubulin Polymerization: The Morpholine Position Matters” (Journal of Medicinal Chemistry, 2024)", "key": {"[1]": {"assay": "Conditional stability constants of the copper(II) complexes by EDTA displacement (UV–vis)", "assay_type": "physicochemical", "settings": "for logK′5.9 (DMSO/H2O) / logK′5.9 (H2O): EDTA displacement, UV–vis, 25 °C; for logK′5.9 (DMSO/H2O): pH 5.9, 30% (v/v) DMSO/H2O; for logK′5.9 (H2O): pH 5.9, water, I = 0.1 M (KCl); for pCu5.9 (=–log[Cu(II)]): calcd. at pH 5.9, cL = cCu(II) = 1 μM", "method": "The stability constants of 3–6 were determined by EDTA competition experiments monitored by UV–vis spectrophotometry at pH 5.9, where the [Cu(HL)]^+ species is dominant. Since the displacement of the TSC ligand by EDTA is relatively slow, a 2 h reaction time was used to reach equilibrium. Upon increasing the concentration of EDTA, the absorbance of the characteristic S → Cu charge transfer band at 400–416 nm decreased (see, for example, Figure 3 for the copper(II)–H2L^4 (1:1) system).[68] The experiments were performed in both aqueous solution and the 30% (v/v) DMSO/H2O solvent mixture. The determined conditional (apparent) formation constants (log K′5.9) are rather similar (see Table 2) in both media. However, the values are lower in the DMSO/H2O solvent mixture than in aqueous solution, presumably due to coordination of DMSO to copper(II). An analogous observation was reported for the copper(II) complex of Triapine.[67] […] To compare the copper(II) binding ability of the studied TSCs H2L^3–H2L^6 at pH 5.9 (at which the conditional constants were determined), pCu (−log [Cu(II)]) values were also computed using the experimentally determined equilibrium constants (Table 2). The higher pCu value indicates a stronger metal ion binding ability of the ligand under given circumstances. The ligands form complexes with fairly similar stability, in agreement with the conditional stability constants. […] A similar behavior was reported for aqueous solutions of the N-terminally dimethylated derivative of the 2-pyridinecarboxaldehyde TSC (PTSC)[69] and for the corresponding morpholine-hybrid Morph-dm-FTSC.[52] In particular, the calculated pCu values were also very close, 13.17 for PTSC vs 13.08 for Morph-dm-FTSC calculated at pH 7.4.\nThe path length was 1 cm."}, "[2]": {"assay": "Cyclic voltammetry of copper(II) complexes in DMSO/n-Bu4NPF6", "assay_type": "physicochemical", "settings": "for Epa^1: first anodic peak potential vs Fc+/Fc; for Epa^1 / Epa^2: 100 mV s^–1; for Epa^2: second anodic peak potential vs Fc+/Fc; for E1/2^red: vs Fc+/Fc, scan rate 100 mV s^–1", "method": "The redox properties of the copper(II) complexes 3–6 were investigated by electrochemical, EPR, and UV–vis spectroelectrochemical measurements. […] While the half-wave reduction potentials E1/2^red for complexes 3–5 were almost the same (−0.82 V vs Fc^+/Fc), the E1/2^red for 6 is by 0.07 V more positive (−0.75 V vs Fc^+/Fc), as summarized in Table 4. The corresponding proligands are not redox active in the cathodic part (not shown).\nCyclic voltammetric experiments with 0.5 mM solutions of copper(II) complexes 3–6 in 0.1 M nBu4NPF6 (puriss quality from Fluka; dried under reduced pressure at 70 °C for 24 h before use) as supporting electrolyte in DMSO (SeccoSolv max. 0.025% H2O, Merck) were performed under Ar using a three-electrode arrangement with Pt wire as the counter electrode and Ag wire as the pseudoreference electrode. Glassy carbon or Pt wire served as the working electrode. Ferrocene purchased from Sigma-Aldrich was used as the internal potential standard without further purification. All potentials in voltammetric studies were quoted vs ferricenium/ferrocene (Fc^+/Fc) as the redox couple. A Heka PG310USB (Lambrecht, Germany) potentiostat with a PotMaster 2.73 software package served for the potential control in voltammetric studies. In situ ultraviolet–visible-near-infrared (UV–vis–NIR) spectroelectrochemical measurements were performed on a spectrometer (Avantes, Model AvaSpec-2048 × 14-USB2 in the spectroelectrochemical cell kit ([…]3) with the Pt-microstructured honeycomb working electrode, purchased from Pine Research Instrumentation. The cell was positioned in the CUV-UV Cuvette Holder (Ocean Optics) connected to the diode array UV–vis-NIR spectrometer by optical fibers. UV–vis-NIR spectra were processed using the AvaSoft 7.7 software package. Halogen and deuterium lamps were used as light sources (Avantes, Model AvaLight-DH-S-BAL)."}, "[3]": {"system": "MES-SA cells", "assay": "Fluorescent protein-based cytotoxicity assay, MES-SA", "assay_type": "cell-based, human", "settings": "120 h; ± SD; n = 3", "source_text": "(§1) The cytotoxic activity of proligands H2L^3–H2L^6 and their copper(II) complexes 3–6 was investigated in the MES-SA (human uterine sarcoma) and in its MDR counterpart (MES-SA/Dx5) cell lines by a fluorescent protein-based assay.[73]\n(§2) The human uterine sarcoma cell lines MES-SA and the doxorubicin selected MES-SA-Dx5 were obtained from ATCC (MES-SA: No. CRL-1976, MES-SA/Dx5: No. CRL-1977) and were used for the intracellular ROS generation studies. For cytotoxicity, we used the fluorescent cell lines MES-SA mCherry and MES-SA/Dx5 eGFP, which were created by lentiviral transductions of the respective genes.[73] The phenotype of the resistant cells was maintained by 500 nM doxorubicin treatment a week before use and was verified using cytotoxicity assays. Cells were cultivated at 37 °C, 5% CO2 in Dulbecco’s modified Eagle's Medium (DMEM, Sigma-Aldrich), supplemented with 10% fetal bovine serum, 5 mM glutamine, and 50 unit/mL penicillin and streptomycin (Thermo Fisher).\n(§3) MES-SA mCherry and MES-SA/Dx5 eGFP cell suspensions were seeded after trypsinization at 2500 cells/20 μL density on 384-well plates, containing 20 μL of completed medium. The next day, serial dilution of the compounds was prepared and added in an additional 20 μL, with or without 0.4 μM Tariquidar. Liquid handling steps were performed by a Hamilton StarLet robot. […] The mean and standard deviation of the pIC50 values were calculated and converted to IC50 values."}, "[4]": {"system": "MES-SA/Dx5 cells", "assay": "Fluorescent protein-based cytotoxicity assay, MES-SA/Dx5", "assay_type": "cell-based, human", "settings": "for IC50: 120 h, ± SD, n = 3; for SR, selectivity ratio IC50 (MES-SA)/IC50 (MES-SA/Dx5): in the absence of TQ", "source_text": "as §1, §2, §3"}, "[5]": {"system": "purified tubulin", "assay": "Inhibition of polymerization of purified tubulin", "assay_type": "biochemical", "settings": "read-out: inhibition of tubulin IC50 ± SD"}}}
{"smiles": "Cc1cc(NC(=NN=Cc2cc(CN3CCOCC3)ccn2)[S][Cu][Cl])cc(C)c1O", "note": "[complex 4, [Cu(HL^4)Cl]·1.5H2O]", "values": [{"measurement": "logK′5.9 (DMSO/H2O)", "setting": "[1]", "result": "10.07 ± 0.01"}, {"measurement": "logK′5.9 (H2O)", "setting": "[1]", "result": "13.35 ± 0.02"}, {"measurement": "pCu5.9 (=–log[Cu(II)])", "setting": "[1]", "result": 8.06}, {"measurement": "Epa^1", "setting": "[2]", "result": "+0.31 V"}, {"measurement": "Epa^2", "setting": "[2]", "result": "+0.77 V"}, {"measurement": "E1/2^red", "setting": "[2]", "result": "–0.82 V"}, {"measurement": "IC50", "setting": "[3]", "result": "19.2 ± 1.7", "unit": "µM"}, {"measurement": "IC50", "setting": "[4]", "result": "5.8 ± 0.1", "unit": "µM"}, {"measurement": "SR, selectivity ratio IC50 (MES-SA)/IC50 (MES-SA/Dx5)", "setting": "[4]", "result": 3.33}, {"measurement": "IC50", "setting": "[5]", "result": "15 ± 1", "unit": "µM"}]}
{"smiles": "Cc1cc(NC(=NN=Cc2ccc(CN3CCOCC3)cn2)[S][Cu][Cl])cc(C)c1O", "note": "[complex 5, [Cu(HL^5)Cl]·2.5H2O]", "values": [{"measurement": "logK′5.9 (DMSO/H2O)", "setting": "[1]", "result": "9.99 ± 0.01"}, {"measurement": "logK′5.9 (H2O)", "setting": "[1]", "result": "13.39 ± 0.01"}, {"measurement": "pCu5.9 (=–log[Cu(II)])", "setting": "[1]", "result": 8.02}, {"measurement": "Epa^1", "setting": "[2]", "result": "+0.29 V"}, {"measurement": "Epa^2", "setting": "[2]", "result": "+0.69 V"}, {"measurement": "E1/2^red", "setting": "[2]", "result": "–0.82 V"}, {"measurement": "IC50", "setting": "[3]", "result": "31 ± 6.2", "unit": "µM"}, {"measurement": "IC50", "setting": "[4]", "result": "8.1 ± 2", "unit": "µM"}, {"measurement": "SR, selectivity ratio IC50 (MES-SA)/IC50 (MES-SA/Dx5)", "setting": "[4]", "result": 3.81}, {"measurement": "IC50", "setting": "[5]", "result": "15 ± 0.4", "unit": "µM"}]}
{"smiles": "Cc1cc(NC(=NN=Cc2cccc(CN3CCOCC3)n2)[S][Cu][Cl])cc(C)c1O", "note": "[complex 6, [Cu(HL^6)Cl]·H2O]", "values": [{"measurement": "logK′5.9 (DMSO/H2O)", "setting": "[1]", "result": "10.09 ± 0.04"}, {"measurement": "logK′5.9 (H2O)", "setting": "[1]", "result": "13.73 ± 0.02"}, {"measurement": "pCu5.9 (=–log[Cu(II)])", "setting": "[1]", "result": 8.07}, {"measurement": "Epa^1", "setting": "[2]", "result": "+0.26 V"}, {"measurement": "Epa^2", "setting": "[2]", "result": "+0.66 V"}, {"measurement": "IC50", "setting": "[3]", "result": 0.29, "unit": "µM"}, {"measurement": "IC50", "setting": "[4]", "result": "1.4 ± 0.2", "unit": "µM"}, {"measurement": "SR, selectivity ratio IC50 (MES-SA)/IC50 (MES-SA/Dx5)", "setting": "[4]", "result": 0.21}, {"measurement": "IC50", "setting": "[5]", "result": "5 ± 0.3", "unit": "µM"}]}
